Results from ChEMBL document CHEMBL3988442, “University of Dundee, Small-Polar-MMV Screening Library” (2021).
Values joined by “and” are separate entries in the source; they are usually repeats but may differ in a detail not shown here. Equal values may be shown once.

Legend:
Plasmodium falciparum = assay: Plasmodium falciparum sporozoite viability assay; assay type: functional, organism-based; conditions: for IC50: Plasmodium falciparum
Lysine--tRNA ligase = Lysine--tRNA ligase (Plasmodium falciparum (isolate 3D7), UniProt Q8IDJ8); assay: Pf-KRS-1 (Lysyl-RNA Synthetase-1, KRS-1, cytosolic KRS) from Plasmodium falciparum. Inhibitor assay, 384 well plate, luminescence read.; assay type: functional
Chain of Lysine--tRNA ligase (Q8IDJ8 whole entry): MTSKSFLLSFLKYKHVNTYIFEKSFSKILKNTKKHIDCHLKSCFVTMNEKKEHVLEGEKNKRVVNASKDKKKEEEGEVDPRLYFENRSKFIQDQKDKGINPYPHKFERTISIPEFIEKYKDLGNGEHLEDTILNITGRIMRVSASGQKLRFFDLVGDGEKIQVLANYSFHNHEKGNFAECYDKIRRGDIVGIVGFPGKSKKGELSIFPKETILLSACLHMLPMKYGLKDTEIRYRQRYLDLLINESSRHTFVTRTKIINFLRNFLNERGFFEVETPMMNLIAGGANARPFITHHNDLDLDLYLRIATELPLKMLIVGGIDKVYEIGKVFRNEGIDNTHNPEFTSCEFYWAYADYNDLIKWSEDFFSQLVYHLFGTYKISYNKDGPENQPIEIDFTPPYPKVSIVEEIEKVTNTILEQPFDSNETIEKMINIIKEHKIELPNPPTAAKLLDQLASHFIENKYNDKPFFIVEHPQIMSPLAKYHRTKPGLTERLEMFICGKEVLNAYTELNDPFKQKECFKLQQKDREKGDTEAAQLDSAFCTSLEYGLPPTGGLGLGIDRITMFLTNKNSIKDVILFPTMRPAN

[1] = target: Sialic acid-binding Ig-like lectin 9 (Homo sapiens, UniProt Q9Y336); assay: Hs-Siglec9 ALPHAscreen SOP 20170721
Chain of Sialic acid-binding Ig-like lectin 9 (Q9Y336 whole entry): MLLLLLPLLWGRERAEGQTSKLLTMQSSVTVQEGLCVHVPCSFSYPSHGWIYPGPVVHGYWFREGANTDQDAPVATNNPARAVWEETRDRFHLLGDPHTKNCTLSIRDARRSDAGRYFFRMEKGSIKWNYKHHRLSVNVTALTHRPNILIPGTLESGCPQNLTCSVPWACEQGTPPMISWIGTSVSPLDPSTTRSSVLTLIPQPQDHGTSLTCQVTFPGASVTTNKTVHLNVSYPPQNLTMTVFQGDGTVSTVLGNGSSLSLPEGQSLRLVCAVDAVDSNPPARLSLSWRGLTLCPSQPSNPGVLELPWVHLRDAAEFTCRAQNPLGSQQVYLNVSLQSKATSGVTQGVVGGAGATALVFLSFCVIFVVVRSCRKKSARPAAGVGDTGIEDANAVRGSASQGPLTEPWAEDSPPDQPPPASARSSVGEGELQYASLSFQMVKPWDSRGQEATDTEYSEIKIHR

[2] = target: T1, Coenzyme A biosynthesis bifunctional protein CoaBC (Mycobacterium tuberculosis (strain ATCC 25618 / H37Rv), UniProt P9WNZ1); assay: Biomol Green assay for MtCoaBC inhibitor, OD650 read; assay type: functional
T1 sequence (P9WNZ1 whole entry): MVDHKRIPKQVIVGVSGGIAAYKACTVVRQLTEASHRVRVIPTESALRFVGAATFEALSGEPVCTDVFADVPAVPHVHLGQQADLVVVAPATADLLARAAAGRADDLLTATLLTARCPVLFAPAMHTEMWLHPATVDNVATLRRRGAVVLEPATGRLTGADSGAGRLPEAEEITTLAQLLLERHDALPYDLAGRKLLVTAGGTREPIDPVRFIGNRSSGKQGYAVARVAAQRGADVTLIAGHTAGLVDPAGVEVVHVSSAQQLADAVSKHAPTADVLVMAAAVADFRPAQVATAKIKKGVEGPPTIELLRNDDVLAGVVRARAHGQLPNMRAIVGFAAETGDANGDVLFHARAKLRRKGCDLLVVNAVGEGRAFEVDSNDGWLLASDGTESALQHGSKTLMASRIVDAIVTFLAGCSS

[3] = target: Polyketide synthase Pks13 (Mycobacterium tuberculosis (strain ATCC 25618 / H37Rv), UniProt I6X8D2); assay: Mycobacterium tuberculosis Polyketide synthase 13 Thioesterase (PKS13); assay type: functional
Chain of Polyketide synthase Pks13 (I6X8D2 whole entry): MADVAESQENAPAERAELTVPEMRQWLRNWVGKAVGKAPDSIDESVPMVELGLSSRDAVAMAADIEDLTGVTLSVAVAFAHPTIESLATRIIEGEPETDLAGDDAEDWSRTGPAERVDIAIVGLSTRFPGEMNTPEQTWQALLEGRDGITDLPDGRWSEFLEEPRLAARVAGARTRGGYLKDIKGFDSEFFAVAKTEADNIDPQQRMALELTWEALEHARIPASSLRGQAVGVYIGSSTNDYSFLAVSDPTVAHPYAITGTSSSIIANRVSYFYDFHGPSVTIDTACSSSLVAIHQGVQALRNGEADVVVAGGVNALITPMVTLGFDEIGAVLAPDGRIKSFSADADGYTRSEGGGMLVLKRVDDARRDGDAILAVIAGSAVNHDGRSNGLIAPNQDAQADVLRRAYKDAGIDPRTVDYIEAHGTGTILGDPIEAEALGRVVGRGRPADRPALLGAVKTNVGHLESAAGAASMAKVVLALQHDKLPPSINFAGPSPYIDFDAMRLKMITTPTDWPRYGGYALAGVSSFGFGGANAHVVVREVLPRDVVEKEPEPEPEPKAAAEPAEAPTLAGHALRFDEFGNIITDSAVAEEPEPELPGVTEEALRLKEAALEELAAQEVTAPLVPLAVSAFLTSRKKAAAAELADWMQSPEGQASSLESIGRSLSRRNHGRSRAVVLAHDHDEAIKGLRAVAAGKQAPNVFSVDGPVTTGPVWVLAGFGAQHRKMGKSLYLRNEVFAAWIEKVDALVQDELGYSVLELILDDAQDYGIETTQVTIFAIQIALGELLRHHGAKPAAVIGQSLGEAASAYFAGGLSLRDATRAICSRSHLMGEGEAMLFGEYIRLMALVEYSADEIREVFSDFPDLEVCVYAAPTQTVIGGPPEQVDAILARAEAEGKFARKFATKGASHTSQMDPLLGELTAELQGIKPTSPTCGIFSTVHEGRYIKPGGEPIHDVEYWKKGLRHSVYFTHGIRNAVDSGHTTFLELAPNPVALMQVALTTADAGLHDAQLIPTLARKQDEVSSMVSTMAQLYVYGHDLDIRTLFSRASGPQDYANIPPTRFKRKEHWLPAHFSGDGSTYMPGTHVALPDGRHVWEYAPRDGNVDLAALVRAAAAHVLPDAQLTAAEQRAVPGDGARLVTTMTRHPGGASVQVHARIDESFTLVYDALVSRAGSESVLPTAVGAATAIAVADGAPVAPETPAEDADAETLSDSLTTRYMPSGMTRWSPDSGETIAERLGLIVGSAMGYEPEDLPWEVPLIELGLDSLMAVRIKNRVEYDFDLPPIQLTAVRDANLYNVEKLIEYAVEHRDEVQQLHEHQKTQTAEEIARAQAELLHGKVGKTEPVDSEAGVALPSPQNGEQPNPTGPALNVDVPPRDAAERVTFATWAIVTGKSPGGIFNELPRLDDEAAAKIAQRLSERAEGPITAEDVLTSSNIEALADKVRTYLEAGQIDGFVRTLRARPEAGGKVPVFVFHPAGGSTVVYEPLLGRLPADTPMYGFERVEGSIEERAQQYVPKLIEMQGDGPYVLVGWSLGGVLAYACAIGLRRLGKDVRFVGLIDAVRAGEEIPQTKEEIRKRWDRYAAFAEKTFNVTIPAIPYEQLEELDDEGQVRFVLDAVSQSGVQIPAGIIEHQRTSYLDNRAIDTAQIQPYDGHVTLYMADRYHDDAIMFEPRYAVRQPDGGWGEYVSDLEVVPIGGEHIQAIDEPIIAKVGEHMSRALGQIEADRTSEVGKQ

| SMILES | pIC50 (Plasmodium falciparum) | IC50 (Plasmodium falciparum) [nM] | further results |
| --- | --- | --- | --- |
| O=C(Cc1ccc2c(c1)OCCO2)N1CCCC(n2cccn2)C1 (centres undefined) | < 4.98 and 5.311 | – | – |
| CC(C)c1nc2c(n1C)CCN(Cc1nc(-c3ccsc3)no1)C2 | 5.081 and 5.405 | – | – |
| NC(=O)c1ccc(NC(=O)Cn2cc(I)cn2)cc1 | 5.308 | 3070 | – |
| Cc1cccc(C(=O)Nc2ccc(OC3CCN(C)CC3)cc2)c1 | 7.031 | 119 | – |
| CCCc1cc(CNC2CCN(c3nc4ccccc4s3)CC2)on1 | 5.685 | 1840 | – |
| CCC(CC)c1nnc(NC(=O)N2CCCC(NC(C)=O)C2)s1 (centres undefined) | 5.262 and 5.718 | – | – |
| CNC(=O)CCC(=O)N1CCOC(c2ccc3cc(OC)ccc3c2)C1 (centres undefined) | 7.215 | 83 | – |
| CC(C)c1n[nH]c(C(=O)Nc2ccnn2C(C)C)c1Br | 6.017 | 970 | – |
| OCC1CCCN1c1cc(NCCc2ccsc2)ncn1 (centres undefined) | 7.515 | 59.6 | – |
| CC(C)(C)n1ncc2c(=O)n(CC(=O)NCc3ccccc3)cnc21 | 7.194 | 43 | – |
| CCC(=O)NC1CCCN(C(=O)Nc2cc(-c3ccccc3)on2)C1 (centres undefined) | 6.751 | 187 | – |
| COc1cc(NC(=O)c2ccc(CN3CC[C@H](O)C3)cc2)cc(OC)c1 | 6.645 | 175 | – |
| CC(C)(C)n1ncc2c(=O)n(CC(=O)NCc3ccccc3Cl)cnc21 | 7.103 | 103 | – |
| CN(C)CC(C)(O)CNC(=O)Nc1sc2ccccc2c1Cl (centres undefined) | 5.506 | 2690 | – |
| CSc1ccccc1C(=O)Nc1ccc(OC2CCN(C)CC2)cc1 | 6.337 and 5.999 | – | – |
| c1cc(-c2noc(CN3CCc4c(ncn4C4CC4)C3)n2)cs1 | 5.546 | 2470 | – |
| CSc1cc2c(cc1NC(=O)NCC1CCOC1)OCCO2 (centres undefined) | 6.419 | 218 | – |
| CC(=O)N1Cc2ccccc2CC1C(=O)Nc1cc(C)ccn1 (centres undefined) | 7.317 | 41.2 | – |
| Cc1nc(COc2ccc(OC3CCCCNC3=O)cc2)oc1C (centres undefined) | 7.451 | 39 | – |
| CCn1cc(C(=O)N2CCOC(c3nc(-c4cccs4)no3)C2)cn1 (centres undefined) | 5.925 and 5.539 | – | – |
| Cc1cc(C)n(CC2CN(Cc3nc4ccccc4s3)CCO2)n1 (centres undefined) | 6.064 | 1720 | – |
| c1ccc2sc(CN3CCOC(Cn4cncn4)C3)nc2c1 (centres undefined) | 6.123 | 621 | – |
| COc1ccc2cc(C3CN(C(=O)N(C)C)CCO3)ccc2c1 (centres undefined) | 7.993 | 14.9 | – |
| O[C@H]1CN(CCOc2ccc(F)cc2)CC[C@@]12CCCO2 | 5.66 | 2550 | – |

| SMILES | pIC50 (Plasmodium falciparum) | IC50 (Plasmodium falciparum) [nM] | further results |
| --- | --- | --- | --- |
| COCCNC(=O)Nc1cc2c(cc1SC)OCCO2 | 6.283 | 555 | – |
| c1ccc(-c2noc(CN3CCc4cncnc4C3)n2)nc1 | 5.93 and 5.587 | – | – |
| Cc1ccc(Nc2nccc(C3CCCN(CC(=O)N(C)C)C3)n2)nc1 (centres undefined) | 5.724 | 2680 | – |
| CSc1cc2c(cc1NC(=O)NCCn1ccnc1)OCCO2 | 6.776 | 126 | – |
| O=C(NCCNc1cc(N2CCCC2)cnn1)Nc1ccccc1F | 6.092 | 819 | – |
| O=C(Nc1cccc(Cl)c1)c1nn(C2CCS(=O)(=O)C2)c2c1CCCC2 (centres undefined) | 5.123 | 8150 | – |
| c1cc(OCc2ccc3c(c2)OCO3)ccc1CNC1CC1 | – | > 10500 | – |
| CCc1n[nH]c(C(=O)NCCn2nccc2C)c1C | – | > 10500 | – |
| COc1cccc(-c2noc(C3CCN(Cc4cn(C)nc4C)C3)n2)c1 (centres undefined) | 5.995 | 863 | – |
| CN1CCN(C2CCN(c3cnc4ccccc4n3)CC2)C1=O | 7.03 and 7.343 | – | – |
| O=C(Nc1ccc(Cl)cn1)c1nn(C2CCS(=O)(=O)C2)c2c1CCCC2 (centres undefined) | 5.512 and 5.897 | – | – |
| CN(C)CCNc1ccc(-c2nc(-c3ccccc3F)no2)cn1 | 7.212 and 6.908 | – | – |
| NC(=O)C1CN(c2ccc3cc(Br)ccc3n2)CCO1 (centres undefined) | 7.699 and 7.366 | – | – |
| Cn1cc(CCC(=O)NS(=O)(=O)N2CCCc3ccccc32)cn1 | 6.583 | 157 | – |
| Cc1nnc(CN(C)Cc2nc3c(s2)CCCC3)o1 | 5.52 | 3560 | – |
| c1cnc(N2CCC3(CCN(CC4CCOC4)CC3)CC2)nc1 (centres undefined) | – | – | IC50 (Lysine--tRNA ligase): > 50100 nM; IC50 [1]: > 30200 nM |
| Cc1ccc(Nc2nccc(C3CCN(CC(N)=O)C3)n2)nc1 (centres undefined) | 7.48 | 21 | – |
| CC/N=c1\nc(NCC)nc2n1C(O)(Nc1ccc(C)cc1C)CS2 (centres undefined) | 5.511 | 2830 | – |
| CC(NC(=O)c1cc(C(C)C)[nH]n1)C(=O)Nc1ccccc1 (centres undefined) | 7.217 | 48.9 | – |
| O=C(Nc1ccc(N2CCCC2)nc1)N1CCc2ccccc2C1 | 5.522 | 2030 | – |
| COc1ccc2cc(C3CN(C(=O)CCNC(C)=O)CCO3)ccc2c1 (centres undefined) | 7.142 | 48.6 | – |
| Clc1ccc2nc(N3CCC(NCCCC4CCOC4)CC3)sc2c1 (centres undefined) | 5.724 | 3770 | – |
| CCC1CN(C(=O)c2ccc(O)cn2)CCC(=O)N1Cc1ccccc1 (centres undefined) | 5.529 and 5.955 | – | – |
| CC1CCCN(Cc2csc(-c3ncccn3)n2)CC1 (centres undefined) | 5.365 | 4800 | – |

| SMILES | pIC50 (Plasmodium falciparum) | IC50 (Plasmodium falciparum) [nM] | further results |
| --- | --- | --- | --- |
| COCCN(C)c1ccc(NCc2cscn2)nc1 | 6.387 | 391 | – |
| CCc1noc(CN(Cc2ccc3c(c2)OCO3)C2CCCC2)n1 | 5.474 and 5.085 | – | – |
| Cc1c(F)cc(C(=O)O)cc1S(=O)(=O)Nc1ccc2c(c1)OCCO2 | 5.599 | 3790 | – |
| CN1CCOC(CNC(=O)CCCOc2ccccc2F)C1 (centres undefined) | 5.757 and 6.214 | – | – |
| CNc1cc(C)nc(N2C[C@@H](C(=O)O)[C@H](C3CC3)C2)n1 | 5.907 | 989 | – |
| Cn1c(-c2cc3n(n2)CCCN(CC(=O)O)C3)nc2ccccc21 | 5.921 and 6.257 | – | – |
| O=C(CCn1cccn1)NS(=O)(=O)N1CCCc2ccccc21 | 6.348 | 495 | – |
| CN1CCCC1CCn1ccnc1-c1nc(-c2ccccc2)no1 (centres undefined) | 6.882 | 71.6 | – |
| OCC1CCCN1c1cc(NCCc2ccccn2)ncn1 (centres undefined) | 7.276 | 51.7 | – |
| Cc1ncsc1CN(C)Cc1cc2c(cc1OC(F)F)OCO2 | 5.624 | 3970 | – |
| CC(C)(C)c1cn2nc(N3CCCC(Cn4cncn4)C3)sc2n1 (centres undefined) | 4.991 | > 10500 | – |
| Cc1ccnc(NC(=O)CSCc2cccnc2)c1 | 7.141 and 6.819 | – | – |
| Cn1cnc2c1CCN(Cc1csc(-c3ccccc3F)n1)C2 | 6.45 | 363 | – |
| OC1CCN(c2ccc(CNc3nc4ccccc4s3)cc2F)CC1 | 7.297 and 6.882 | – | – |
| Cc1cncc(NC(=O)c2ccc(CN3CC[C@H](O)C3)cc2)c1 | 6.801 | 80.2 | – |
| CC(C)(C)n1ncc2c1CCCC2NCc1ccc2c(c1)OCCO2 (centres undefined) | 6.564 | 411 | – |
| C(=C\c1ccc(CN2CCCC2)cn1)/c1ccccc1 | 7.171 | 113 | – |
| COC(=O)CCCNC(=O)N1CCc2c([nH]c3ccc(Cl)cc23)C1 | 5.609 and 6.035 | – | – |
| CCn1ncc2c1CCCC2NCc1cccc2c1OCO2 (centres undefined) | 5.451 | 4370 | – |
| COc1cccc(-c2noc(C3CCN(CC(N)=O)C3)n2)c1 (centres undefined) | – | > 10500 | – |
| COC(=O)CC1CCN(C(=O)Nc2ccc(-c3ccn[nH]3)cc2)C1 (centres undefined) | 6.226 | 436 | – |
| Cc1cc(C(=O)N2CCCC(c3cc(=O)nc4n3CCC4)C2)on1 (centres undefined) | – | – | IC50 [1]: > 30200 nM; IC50 [2]: > 30200 nM |
| COCC1CN(Cc2ccsc2)Cc2cnn(C)c21 (centres undefined) | – | – | IC50 [1]: > 30200 nM; IC50 [2]: > 30200 nM |
| Cc1cc(C(=O)NCc2cc(C)oc2C)no1 | – | – | IC50 [1]: > 30200 nM; IC50 [3]: > 100000 nM |
